Assay results reported in the supplement of paper PMC8239392.

Key:
[1] = system: TAZ-DEP MCF10A-TAZ tumor cells; test: cell viability relative to DMSO control; higher = less cytotoxic; extreme values may be limits of the assay; settings: 72 h
Procedure: (§1)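 TAZ-dependent (grown with 2 ug/ml dox) and TAZ-independent MCF10A-TAZ tumor-derived breast cancer stem-like cells were plated in 384-well plates and treated with serially diluted compounds (0.65-10 uM) for 72 h. Viability was read by resazurin assay and expressed as % of DMSO-treated control.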

[2] = system: TAZ-IND MCF10A-TAZ tumor cells; test: as above; settings: 72 h
Procedure: as §1

Compound	cell viability ([1]; 0.65 µM)	cell viability ([1]; 1.25 µM)	cell viability ([1]; 2.5 µM)	cell viability ([1]; 5 µM)	cell viability ([1]; 10 µM)	cell viability ([2]; 0.65 µM)	cell viability ([2]; 1.25 µM)	cell viability ([2]; 2.5 µM)	cell viability ([2]; 5 µM)	cell viability ([2]; 10 µM)
CNC(=O)c1cc(Oc2ccc(NC(=O)Nc3ccc(Cl)c(C(F)(F)F)c3)cc2)ccn1 [Sorafenib]	100%	98%	92%	84%	72%	100%	99%	100%	98%	93%
N#CC(=C(/N)Sc1ccccc1N)/C(C#N)=C(\N)Sc1ccccc1N [U0126-EtOH]	99%	94%	84%	70%	67%	95%	94%	89%	84%	79%
CNCc1ccc(-c2cc(-c3nc(-c4ccc(S(=O)(=O)C(C)C)cc4)cnc3N)on2)cc1 [VE-822]	55%	37%	29%	23%	20%	96%	87%	81%	75%	69%
C=CC(=O)Nc1cccc(Oc2nc(Nc3ccc(N4CCN(C)CC4)cc3OC)ncc2Cl)c1 [WZ4002]	90%	72%	67%	33%	23%	96%	97%	96%	75%	68%
